In data set [1] the test system is VEGF non-dependent human umbilical vein endothelial cells (HUVEC). The data set can be described thus: Cell growth inhibition test, VEGF non-dependent HUVEC. The format is cell-based. As to conditions: 72 hours, WST-1, read-out: HUVEC (VEGF Nondependence), 50% Growth Inhibition Concentration (IC50 value). On the procedure:
(§1) Cell Growth Inhibition Test
(§2) With respect to the compounds relating to the present invention and the known compound (BAY 43-9006), cell growth inhibition activity was measured.
(§3) A sample compound was in-series diluted with dimethyl sulfoxide, and then was 1/50 diluted with a Ca^2+- and Mg^2+-free phosphate-bufferized physiological saline and its 20 μL was poured to a 96-well plate. […] Each of these cell suspensions was dividedly poured to the sample added plate in 180 μL/well and cultured in a 5% carbon dioxide incubator at 37° C. After 72 hours, 20 μL of WST-(HCT 116, a product of Dojin) or WST-1 (HUVEC, a product of Roche diagnostics) was added thereto to each well and the absorbance at 450 nm (reference wavelength: 650 nm) was measured. From the growth inhibition ratio of addition of the sample compound to no-addition of the sample compound as a reference, the 50% growth inhibition IC50) of the sample compound was calculated.
(§4) With respect to the group of representative compounds of the present invention, the IC50 values of HCT 116 and HUVEC (VEGF nondependent growth and VEGF dependent growth) are shown in Tables 5-1 to 5-3.
Background: Tetrazolium assays rely on reduction of a dye to a coloured formazan, in cell work by metabolically active cells.

In data set [2] the test system is VEGF dependent HUVEC. The data set can be described thus: Cell growth inhibition test, VEGF dependent HUVEC. It counts as cell-based. As to conditions: Homo sapiens, 20 ng/mL of VEGF, 72 hours, WST-1, read-out: HUVEC (VEGF Dependence), 50% Growth Inhibition Concentration (IC50 value). On the procedure:
as §1, §2, §3, §4

The subject of data set [3] is human colorectal cancer cell strain HCT 116. The data set can be described thus: Antitumor test, HCT 116 inoculated subcutaneously in nude mouse. The format is in vivo, male Balb/c nude mouse. As to conditions: dosage 200 mg/kg, orally one time a day for 5 days, final administration day. As for the experimental part: as §2
(§5) A cell suspension of a human colorectal cancer cell strain HCT 116 was prepared with a Hunks' balanced salt solution. Its 5.0×10^6 were inoculated subcutaneously to the flank of each male Balb/c nude mouse. When the mean volume of a tumor reached 200 to 250 mm^3, a sample compound was orally administered one time a day for 5 days. The tumor volume was calculated from the calculation formula: 0.5×(minor diameter)^2×(major diameter), and the tumor growth inhibition ratio was calculated from the ratio of the tumor growth of the sample administered group to that of a reference group. The dosage in the antitumor test, the tumor growth inhibition ratio on the final administration day and the reduction in body weight on day 7 after starting administration are shown in Tables 6-1 and 6-2

The test system is the same in data set [4]. Put plainly: Cell growth inhibition test, HCT 116. The format is cell-based. As to conditions: 72 hours, read-out: HCT116, 50% Growth Inhibition Concentration (IC50 value). As for the experimental part: as §1, §2, §3, §4
Data set [5] addresses T1, recombinant Raf-1 protein (activated type GST-Raf-1) (Homo sapiens, UniProt P04049).
T1 construct: fused on or other part: GST tag fused to Raf-1
Put plainly: RAF-1 enzyme inhibition test (33P incorporation into MEK 1 protein). It counts as biochemical. As to conditions: 10 μM ATP, GST-MEK1 substrate, 30° C., 45 minutes; read-out: Raf-1 Enzyme Inhibition, 50% Enzyme Inhibition Concentration (IC50 value). As for the experimental part:
RAF-1 Enzyme Inhibition Test
With respect to the compounds relating to the present invention and the known compound (BAY 43-9006):
[drawing 660] the Raf-1 protein inhibition activity was measured. The enzymatic reaction was measured by incorporation of ^33P-phosphoric acid into MEK 1 protein by a recombinant Raf-1 protein. The activity was measured by preparing 50 μL of a reaction solution containing a dimethyl sulfoxide solution of the compound relating to the present invention or the compound BAY 43-9006 at a varied concentration [as the final concentration, the reaction solution containing […] of TRIS hydrochloric buffer (pH 7.5), 1 mM of dithiothreitol, 100 mM of sodium chloride, 10 mM of potassium fluoride, 1 mM of sodium vanadate, 10 mM of magnesium chloride, 10 μM of adenosine triphosphate (ATP, containing ^33P-ATP of 12580Bq), 2 μg of GST-MEK1 and 25 ng of an activated type GST-Raf-1]; keeping the reaction solution at 30° C. for 45 minutes; adding 100% trichloroacetic acid to the reaction solution in an amount twice the volume of the reaction solution to precipitate a proteinous component; recovering the precipitate on a glass filter; and measuring the radioactivity of the recovered product. The 50% inhibition concentration (IC50) was obtained from the inhibition ratio to a sample-free reference.
The compound BAYT 43-9006 was prepared on the basis of the description (Example 41) of WO 00/42012.

Data set [6] is described as follows: Solubility to fasted state simulated intestinal fluid. The format is physicochemical. As to conditions: fassif, kinetic from dmso stock, fasted state simulated intestinal fluid (pH 6.5), 37° C. Summed up: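 DMSO stock of compound added to FaSSIF (pH 6.5; taurocholate, phosphatidylcholine, KH2PO4, KCl) and shaken 20 h at 37° C. Filtrate diluted with ethanol:water 2:1 and read by UV absorbance; solubility taken as sample-to-standard absorbance ratio (blank-corrected) × 165 μM standard.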

Data set [7] in a line: Antitumor test, reduction in body weight. The format is in vivo, male Balb/c nude mouse. As to conditions: dosage 200 mg/kg, orally one time a day for 5 days, day 7 after starting administration. On the procedure: as §5

Molecules are shown by their SMILES. Values after ≈ are worked out from the molar mass of the structure shown. Where a name gives a salt, the structure may show the parent alone.

T1 sequence (P04049 349-648 limits assumed): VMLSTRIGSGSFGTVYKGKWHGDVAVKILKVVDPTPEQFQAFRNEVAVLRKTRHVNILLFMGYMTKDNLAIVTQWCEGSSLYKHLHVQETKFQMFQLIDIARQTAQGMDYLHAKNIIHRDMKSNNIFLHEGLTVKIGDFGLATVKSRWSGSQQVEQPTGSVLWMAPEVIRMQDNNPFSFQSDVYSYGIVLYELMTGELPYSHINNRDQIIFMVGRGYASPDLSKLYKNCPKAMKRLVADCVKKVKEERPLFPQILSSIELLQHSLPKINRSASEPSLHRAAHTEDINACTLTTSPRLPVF

Consider `CNc1ncnc2c1ncn2-c1ccc(NC(=O)Nc2ccc(Cl)c(C(F)(F)F)c2)cc1.Cl` [Table 1, Compound 36, 1-(4-Chloro-3-(trifluoromethyl)phenyl)-3-[4-(6-(methylamino)purin-9-yl)phenyl]urea hydrochloride], for which the IC50 in data set [1] stood at 250 nM; in data set [2], 79 nM; in data set [4], 700 nM; in data set [5], 110 nM. For the same molecule, in data set [3], the “Tumor Inhibition Ratio (%)” value came out at 81%. For the same molecule, in data set [6], the solubility – broadly, the concentration that dissolves in the medium under given conditions – at 20 h is 22 µg/mL. Moreover, the “Body Weight Reduction ratio (%)” value in data set [7] is 5.9%.

In the case of `CNC(=O)c1nccc2c1ncn2-c1ccc(NC(=O)Nc2ccc(Cl)c(C(F)(F)F)c2)cc1` [Table 1, Compound 93, 1-{4-[3-(4-Chloro-3-(trifluoro-methyl)phenyl)ureido]phenyl}-1H-imidazo[4,5-c]pyridine-4-carboxylic acid methylamide], the “Tumor Inhibition Ratio (%)” value in data set [3] turned out to be 79%. For the same molecule, the IC50 in data set [5] stood at 53 nM. Also, in data set [7], the “Body Weight Reduction ratio (%)” value is 6.0%.

With `CN(C)/C=N\c1ncnc2c1ncn2-c1ccc(NC(=O)Nc2ccc(Cl)c(C(F)(F)F)c2)cc1` [Table 1, Compound 95, N′-(9-{4-[3-(4-Chloro-3-(tri-fluoromethyl)phenyl)ureido]-phenyl}-9H-purin-6-yl}-N,N-dimethylformamidine hydro-chloride], the IC50 in data set [1] is 2600 nM; in data set [2], 470 nM; in data set [4], 3100 nM; in data set [5] it was 42 nM.

`CC(C)C[C@H](N)C(=O)Nc1ncnc2c1ncn2-c1ccc(NC(=O)Nc2ccc(Cl)c(C(F)(F)F)c2)cc1` [Table 1, Compound 96, (S)-2-Amino-4-methyl-pentanoic acid 9-{4-[3-(4-chloro-3-(tri-fluoromethyl)phenyl)ureido}-phenyl)-9H-purin-6-yl)amide hydrochloride]: the IC50 in data set [1] was found to be 3200 nM; in data set [2], 91 nM; in data set [4], 2200 nM; in data set [5], 44 nM. Further, the solubility at 20 h in data set [6] was 102 µg/mL.

`N[C@@H](CCC(=O)Nc1ncnc2c1ncn2-c1ccc(NC(=O)Nc2ccc(Cl)c(C(F)(F)F)c2)cc1)C(=O)O` [Table 1, Compound 104, (S)-2-Amino-4-(9-{4-[3-(4-chloro-3-(trifluoromethyl)-phenyl)ureido]phenyl}-9H-purin-6-ylcarbamoyl)butanoic acid hydrochloride]: the IC50 in data set [1] stood at 7400 nM; in data set [2], 930 nM; in data set [4], 3900 nM; in data set [5], 74 nM.

With `CCCNC(=O)Nc1ncnc2c1ncn2-c1ccc(NC(=O)Nc2ccc(Cl)c(C(F)(F)F)c2)cc1` [Table 1, Compound 119, 1-(9-{4-[3-(4-Chloro-3-(tri-fluoromethyl)phenyl)ureido]-phenyl}-9H-purin-6-yl)-3-propylurea], the IC50 in data set [1] amounted to 970 nM; in data set [2] it was 64 nM; in data set [4] it was 3700 nM; in data set [5], 13 nM. Further, in data set [3], the “Tumor Inhibition Ratio (%)” value was determined as 89%. In addition, the solubility at 20 h in data set [6] was 39 µg/mL (≈ 73.2 µM). Further, the “Body Weight Reduction ratio (%)” value in data set [7] is listed as 8.5%.

Take `CNc1ncnc2c1ncn2-c1ccc(NC(=O)Nc2cc(CN3CCN(C)CC3)cc(C(F)(F)F)c2)cc1` [Table 2, Compound 25, 1-[4-(6-(Methylamino)purin-9-yl)phenyl]-3-[3-(4-methyl-piperazin-1-ylmethyl)-5-(tri-fluoromethyl)phenyl]urea]: the IC50 came to 1700 nM in data set [1], 280 nM in data set [2], 1700 nM in data set [4] and 110 nM in data set [5]. Further, in data set [3], the “Tumor Inhibition Ratio (%)” value came to 80%. For the same molecule, the solubility at 20 h in data set [6] is 158 µg/mL (≈ 293 µM). Moreover, in data set [7], the “Body Weight Reduction ratio (%)” value worked out at 2.7%.

For `CN1CCN(Cc2cc(NC(=O)Nc3ccc(-n4cnc5c(N)ncnc54)cc3)cc(C(F)(F)F)c2)CC1` [Table 2, Compound 26], the “Tumor Inhibition Ratio (%)” value in data set [3] came to 72%. For the same molecule, in data set [5], the IC50 amounted to 83 nM. The molecule also returned a solubility at 20 h in data set [6] of 61 µg/mL (≈ 116 µM). The “Body Weight Reduction ratio (%)” value in data set [7] was found to be 5.0%.

Turning to `CNc1ncnc2c1ncn2-c1ccc(NC(=O)Nc2cc(CN(C)C)cc(C(F)(F)F)c2)cc1` [Table 2, Compound 30, 1-(3-Dimethylaminomethyl-5-(trifluoromethyl)phenyl)-3-[4-(6-(methylamino)purin-9-yl)-phenyl]urea], in data set [3], the “Tumor Inhibition Ratio (%)” value worked out at 131%. Further, in data set [5], the IC50 was 190 nM. The concentration in solution in data set [6] (solubility at 20 h) was 105 µg/mL (≈ 217 µM). Also, the “Body Weight Reduction ratio (%)” value in data set [7] turned out to be 5.7%.

`CNc1ncnc2c1ncn2-c1ccc(NC(=O)Nc2ccc(CN3CC(C)NC(C)C3)c(C(F)(F)F)c2)cc1` (centres unmarked) [Table 3, Compound 46, 1-[4-(3,5-Dimethyl-piperazin-1-ylmethyl)-3-(trifluoromethyl)phenyl]-3-[4-(6-(methylamino)purin-9-yl)phenyl]urea]: the IC50 was 4200 nM in data set [1], 290 nM in data set [2], 2800 nM in data set [4] and 41 nM in data set [5]. Also, the concentration in solution in data set [6] (solubility at 20 h) came to 23 µg/mL (≈ 41.5 µM).

Values taken from patent US8609656B2, “Heteroarylphenylurea derivative” (Chugai Seiyaku Kabushiki Kaisha, priority 2004, dated 2013).
